Earlier results on one compound are cited in patent US9370632B2, “Nasal treatment delivery device for mixed carbon dioxide and saline” (CLOVER HILL HEALTHCARE, INC., priority 2012, dated 2016).

The data set deals with subjects with SAR, nasal allergen challenge (grass or ragweed allergen).

As for `O=C=O` [CO(2), carbon dioxide], where the note is “20-second exposure to CO(2) 30 minutes before allergen challenge, compared with no treatment”, the ipsilateral secretion weights result is recorded as “numerically reduced”. Further, the sneezes result (20-second exposure to CO(2) 30 minutes before allergen challenge, compared with no treatment, 12 subjects with SAR, p=0.05) is listed as “significant reduction”. In addition, the “bilateral runny nose symptoms” value (20-second exposure to CO(2) 30 minutes before allergen challenge, compared with no treatment, p=0.01) is reported as “significant reduction”. Moreover, for the setting “20-second exposure to CO(2) 30 minutes before allergen challenge, compared with no treatment, p=0.04”, the “contralateral secretion weights (reflex secretory response, primary outcome)” value is reported as “significant reduction”. For the same compound, the “histamine levels in ipsilateral nasal secretions” value (after pretreatment with CO(2), increased significantly with sham treatment) is “did not increase”. Where the note is “during 20-second intranasal exposure to CO(2)”, the “sensation reported by subjects during exposure” value is “transient burning sensation”.
